The values below come from patent US9675598B2, “Compositions of tolperisone” (SANOCHEMIA PHARMAZEUTIKA AG, priority 2007, dated 2017).

Series [1] can be described thus: 4-MMPPO content after recrystallization using acidified solvent system (Example 5). The format is physicochemical. The conditions noted are these: 1% (v/v) concentrated aqueous HCl added to the recrystallization mixture. The method, then:
Crude tolperisone was dissolved in an 85:15 (v/v) mixture of 2-butanone (MEK) and isopropanol, accompanied by addition of 1% HCl under reflux for 12 hours. The temperature was decreased to 80° C. and the solution filtered while hot. The solution was cooled to 5° C. and stirred for 7 h at 5° C.
The crystalline precipitate was separated by filtering, washed with isopropanol, and subsequently dried in vacuo at 45 to 85° C., with lower drying temperatures being preferred.
When 1% (v/v) concentrated aqueous HCl was added to the recrystallization mixture, 4-MMPPO levels dropped below 6.6 ppm in the final recrystallized tolperisone product.

Series [2] is described as follows: 4-MMPPO content after standard single recrystallization of tolperisone (Example 2). Type of series: physicochemical. The procedure: All samples used in the analytical sequence were prepared for analysis as follows. Sample were homogenized if necessary (e.g., tablets) and weighed. For each tolperisone sample, approximately 20 mg of sample was added into a 20 mL flask. 20 mL of 50 mM HCl in MeOH was added to the flask, which was then placed in an ultrasonic bath for about 5 minutes. The contents of the flask were mixed on a vortexer for about 20 seconds. In instances in which the tolperisone sample had initially been in tablet form, the solution was then centrifuged at 4000 rpm for 2 minutes. 200 μL of the sample was then transferred into a small conical centrifuge vial. 20 μL of an internal standard solution containing deuterated 4-MMPPO, 200 μL of buffer at pH 1, and 0.4 mL of diisopropyl ether (DIPE) were added to the vial. The sample was then extracted by vortexing with a DVX-2500 multi-tube vortexer (2100 rpm) for about 2 minutes (cycle: 5 seconds run, 1 second pause time) and centrifugation (phase separation) at 4000 rpm for 2 minutes. 150 μL of 50 mM HCl in MeOH/DMSO (½) was added into empty designated conical autosampler vials. After centrifugation, 100 μL of supernatant was transferred into these conical autosampler vials. The vials were crimped and vortexed with a DVX-2500 multi-tube vortexer (2100 rpm) for about 1 minute. […]

With `Cc1ccc(C(=O)C(C)CN2CCCCC2)cc1` (stereo not drawn) [tolperisone, 2-methyl-1-(4-methylphenyl)-3-(piperidinyl)-1-propanone], the “4-MMPPO levels in the final recrystallized tolperisone product” value in series [1] was “below 6.6 ppm”. In series [2] (ppm as printed), the “4-MMPPO content of recrystallized product” value was 1400 ppm. Also, in series [2] (subsequent production batches), the “4-MMPPO content, subsequent production batches” value was less than 0.05%.
